Source: the supplement of paper PMC10307832

Assays:
Test in all cases: relative viability (nuclei count vs DMSO), 5 days (fraction); higher = more cells survive
201T = test system: 201T
In short: (§1)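 After 5 days of treatment, lung cancer cells in 1536-well plates were fixed and stained in a single step (final 0.05% Triton X-100, 1% formaldehyde, 1 ug/ml Hoechst) and their nuclei counted on 4× images. Treatment had been applied by pin tool the day after seeding as one drug alone or as a fixed anchor-drug dose with five library-drug doses (not always all listed) in √10 steps. Relative viability is the nuclei count of treated wells divided by that of vehicle wells, and values are medians of duplicate plates.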

A-427 = test system: A-427
In short: as §1

COR-L 105 = test system: COR-L 105
In short: as §1

COR-L23 = test system: COR-L23
In short: as §1

EKVX = test system: EKVX
In short: as §1

HARA = test system: HARA
In short: as §1

HCC-15 = test system: HCC-15
In short: as §1

HCC-44 = test system: HCC-44
In short: as §1

HCC-827 = test system: HCC-827
In short: as §1

LCLC-103H = test system: LCLC-103H
In short: as §1

LK-2 = test system: LK-2
In short: as §1

NCI-H1437 = test system: NCI-H1437
In short: as §1

NCI-H1666 = test system: NCI-H1666
In short: as §1

NCI-H1792 = test system: NCI-H1792
In short: as §1

NCI-H1975 = test system: NCI-H1975
In short: as §1

NCI-H23 = test system: NCI-H23
In short: as §1

NCI-H441 = test system: NCI-H441
In short: as §1

NCI-H520 = test system: NCI-H520
In short: as §1

NCI-H596 = test system: NCI-H596
In short: as §1

NCI-H650 = test system: NCI-H650
In short: as §1

NCI-H838 = test system: NCI-H838
In short: as §1

SK-MES-1 = test system: SK-MES-1
In short: as §1

Clc1ccc(Nc2nnc(Cc3ccncc3)c3ccccc23)cc1 [Vatalanib] + CS(=O)(=O)N1CCN(Cc2cc3nc(-c4cccc5[nH]ncc45)nc(N4CCOCC4)c3s2)CC1 [Pictilisib] (partner 1 µM) showed a relative viability (201T; first compound 0.04 µM) of 0.694, a relative viability (201T; first compound 0.1265 µM) of 0.667 and a relative viability (201T; first compound 0.4 µM) of 0.706. For the same molecule, the relative viability (201T; first compound 1.265 µM) was 0.663, the relative viability (201T; first compound 4 µM) was 0.722 and the relative viability (A-427; first compound 0.04 µM) was 0.667. It also gave a relative viability (A-427; first compound 0.1265 µM) of 0.671, a relative viability (A-427; first compound 0.4 µM) of 0.736 and a relative viability (A-427; first compound 1.265 µM) of 0.624. The relative viability (A-427; first compound 4 µM) was 0.677, the relative viability (COR-L 105; first compound 0.04 µM) was 0.361 and the relative viability (COR-L 105; first compound 0.1265 µM) was 0.4. The relative viability (COR-L 105; first compound 0.4 µM) was 0.276, the relative viability (COR-L 105; first compound 1.265 µM) was 0.359 and the relative viability (COR-L 105; first compound 4 µM) was 0.377. It also gave a relative viability (COR-L23; first compound 0.04 µM) of 0.992, a relative viability (COR-L23; first compound 0.1265 µM) of 0.745 and a relative viability (COR-L23; first compound 0.4 µM) of 0.854. The relative viability (COR-L23; first compound 1.265 µM) was 0.758, the relative viability (COR-L23; first compound 4 µM) was 0.64 and the relative viability (EKVX; first compound 0.04 µM) was 0.39. The relative viability (EKVX; first compound 0.1265 µM) was 0.463, the relative viability (EKVX; first compound 0.4 µM) was 0.391 and the relative viability (EKVX; first compound 1.265 µM) was 0.344. It also gave a relative viability (EKVX; first compound 4 µM) of 0.396, a relative viability (HARA; first compound 0.04 µM) of 0.555 and a relative viability (HARA; first compound 0.1265 µM) of 0.414. For the same molecule, the relative viability (HARA; first compound 0.4 µM) was 0.351, the relative viability (HARA; first compound 1.265 µM) was 0.454 and the relative viability (HARA; first compound 4 µM) was 0.369. It also gave a relative viability (HCC-15; first compound 0.04 µM) of 0.788, a relative viability (HCC-15; first compound 0.1265 µM) of 0.741 and a relative viability (HCC-15; first compound 0.4 µM) of 0.799. For the same molecule, the relative viability (HCC-15; first compound 1.265 µM) was 0.716, the relative viability (HCC-15; first compound 4 µM) was 0.786 and the relative viability (HCC-44; first compound 0.04 µM) was 0.704. The relative viability (HCC-44; first compound 0.1265 µM) was 0.684, the relative viability (HCC-44; first compound 0.4 µM) was 0.63 and the relative viability (HCC-44; first compound 1.265 µM) was 0.644. It also gave a relative viability (HCC-44; first compound 4 µM) of 0.613, a relative viability (HCC-827; first compound 0.04 µM) of 0.974 and a relative viability (HCC-827; first compound 0.1265 µM) of 0.872. It also gave a relative viability (HCC-827; first compound 0.4 µM) of 0.925, a relative viability (HCC-827; first compound 1.265 µM) of 1.06 and a relative viability (HCC-827; first compound 4 µM) of 0.863. The relative viability (LCLC-103H; first compound 0.04 µM) was 0.6, the relative viability (LCLC-103H; first compound 0.1265 µM) was 0.606 and the relative viability (LCLC-103H; first compound 0.4 µM) was 0.55. For the same molecule, the relative viability (LCLC-103H; first compound 1.265 µM) was 0.596, the relative viability (LCLC-103H; first compound 4 µM) was 0.714 and the relative viability (LK-2; first compound 0.04 µM) was 0.531. It also gave a relative viability (LK-2; first compound 0.1265 µM) of 0.561, a relative viability (LK-2; first compound 1.265 µM) of 0.651 and a relative viability (LK-2; first compound 4 µM) of 0.569. The relative viability (NCI-H1437; first compound 0.04 µM) was 0.49, the relative viability (NCI-H1437; first compound 0.1265 µM) was 0.456 and the relative viability (NCI-H1437; first compound 0.4 µM) was 0.518. It also gave a relative viability (NCI-H1437; first compound 1.265 µM) of 0.432, a relative viability (NCI-H1437; first compound 4 µM) of 0.432 and a relative viability (NCI-H1666; first compound 0.04 µM) of 0.538. It also gave a relative viability (NCI-H1666; first compound 0.1265 µM) of 0.334, a relative viability (NCI-H1666; first compound 0.4 µM) of 0.33 and a relative viability (NCI-H1666; first compound 1.265 µM) of 0.512. It also gave a relative viability (NCI-H1666; first compound 4 µM) of 0.499, a relative viability (NCI-H1792; first compound 0.04 µM) of 0.279 and a relative viability (NCI-H1792; first compound 0.1265 µM) of 0.327. For the same molecule, the relative viability (NCI-H1792; first compound 0.4 µM) was 0.249, the relative viability (NCI-H1792; first compound 1.265 µM) was 0.276 and the relative viability (NCI-H1792; first compound 4 µM) was 0.28. The relative viability (NCI-H1975; first compound 0.04 µM) was 0.277, the relative viability (NCI-H1975; first compound 0.1265 µM) was 0.322 and the relative viability (NCI-H1975; first compound 0.4 µM) was 0.32. For the same molecule, the relative viability (NCI-H1975; first compound 1.265 µM) was 0.258, the relative viability (NCI-H1975; first compound 4 µM) was 0.287 and the relative viability (NCI-H23; first compound 0.04 µM) was 0.45. The relative viability (NCI-H23; first compound 0.1265 µM) was 0.412, the relative viability (NCI-H23; first compound 0.4 µM) was 0.511 and the relative viability (NCI-H23; first compound 1.265 µM) was 0.436. It also gave a relative viability (NCI-H23; first compound 4 µM) of 0.552, a relative viability (NCI-H441; first compound 0.04 µM) of 0.561 and a relative viability (NCI-H441; first compound 0.1265 µM) of 0.4. For the same molecule, the relative viability (NCI-H441; first compound 0.4 µM) was 0.592, the relative viability (NCI-H441; first compound 1.265 µM) was 0.474 and the relative viability (NCI-H441; first compound 4 µM) was 0.501. For the same molecule, the relative viability (NCI-H520; first compound 0.04 µM) was 0.312, the relative viability (NCI-H520; first compound 0.1265 µM) was 0.277 and the relative viability (NCI-H520; first compound 0.4 µM) was 0.34. It also gave a relative viability (NCI-H520; first compound 1.265 µM) of 0.306, a relative viability (NCI-H520; first compound 4 µM) of 0.308 and a relative viability (NCI-H596; first compound 0.04 µM) of 0.347. The relative viability (NCI-H596; first compound 0.1265 µM) was 0.353, the relative viability (NCI-H596; first compound 0.4 µM) was 0.392 and the relative viability (NCI-H596; first compound 1.265 µM) was 0.371. The relative viability (NCI-H596; first compound 4 µM) was 0.393, the relative viability (NCI-H650; first compound 0.04 µM) was 0.875 and the relative viability (NCI-H650; first compound 0.1265 µM) was 0.914. For the same molecule, the relative viability (NCI-H650; first compound 1.265 µM) was 0.868, the relative viability (NCI-H650; first compound 4 µM) was 0.909 and the relative viability (NCI-H838; first compound 0.04 µM) was 0.477. For the same molecule, the relative viability (NCI-H838; first compound 0.1265 µM) was 0.41, the relative viability (NCI-H838; first compound 0.4 µM) was 0.518 and the relative viability (NCI-H838; first compound 1.265 µM) was 0.453. For the same molecule, the relative viability (NCI-H838; first compound 4 µM) was 0.467, the relative viability (SK-MES-1; first compound 0.04 µM) was 0.408 and the relative viability (SK-MES-1; first compound 0.1265 µM) was 0.351. The relative viability (SK-MES-1; first compound 0.4 µM) was 0.387, the relative viability (SK-MES-1; first compound 1.265 µM) was 0.338 and the relative viability (SK-MES-1; first compound 4 µM) was 0.365.
